Laboratory results: ChEMBL document CHEMBL3507680, “University of Dundee, Gates Library screen for HepG2 cell viability”

Experiment: Human HepG2 cell viability assay in 384 well format
Format: toxicity, cell-based
Set-up: dose 125 nL, time 70.5 hour; concentration not given beside the values
Settings: HepG2 cells, read-out: Inhibition

| Structure (SMILES) | cytotoxicity at 70.5 h |
| --- | --- |
| CS(=O)(=O)N[C@@H]1CCO[C@]2(CCN(C(=O)C3=CCCC3)C2)C1 | -10% |
| CC1(C)[C@H](Cc2cc(CO)on2)C[C@@H]1N(CC1CC1)CC1CC1 | 5.68% |
| COCC(=O)N1C[C@H]2CN(Cc3csc(C)n3)C(=O)[C@H]2C1 | -8.09% |
| CC(C)N(Cc1ccc(C#N)cc1)C(=O)Nc1ccccn1 | -7.3% |
| CC(C)(C)n1cc(C#N)cc1NC(=O)CCS(=O)(=O)C1CCCC1 | 0.563% |
| CCN(CC)CC[C@H]1CN(C(=O)C2CCC2)CC[C@H]1CC(=O)O | 5.37% |
| CC(C)N1CCC(Cc2cncc(-c3cc(F)ccc3C(=O)O)n2)CC1 | 0.0602% |
| CC1(C)CC1C(=O)NS(=O)(=O)Cc1cc(-c2ccccc2)no1 (stereo not drawn) | -1.85% |
| CCC1COCCN1C(=O)NCc1nccn1CC(C)C (stereo not drawn) | -15.6% |
| CC(=O)Nc1nc(C(=O)N2CCCC2c2ccc(Br)cc2)cs1 (stereo not drawn) | 3.74% |
| c1ccc(CN2CCCC3(CCN(CC4CCCO4)CC3)C2)nc1 (stereo not drawn) | -9.93% |
| COc1ccc(CN2CCc3c(CNC(=O)CC#N)nn(C)c3C2)cc1 | -1.4% |
| CN(Cc1n[nH]c2c1CCCC2)c1cc(N2CCOCC2)nc(N)n1 | -8.11% |
| Cc1nc(CC(=O)NCc2csc(N3CCCC3)n2)cs1 | -4.47% |
| Cc1cc(NCc2cccc(C#N)c2)ccc1Br | -7.27% |
| O=C1[C@H]2CN(Cc3cccs3)C[C@H]2CN1CCN1CCCC1 | 12% |
| CNc1ncccc1CN1CCCCC1c1ccnc(N)n1 (stereo not drawn) | -3.08% |
| COc1ccc(CC(=O)N2CCN(C)c3ncccc3C2)cc1 | 11.6% |
| O=C(NCC1CCOCC1)c1cc(-c2ccncc2)c2cnccc2n1 | -2.01% |
| O=C(N1CCCC1)N1CCc2c(CNc3ncccn3)cncc2C1 | -1.33% |
| O=C(Nc1cccc(N2CCN(CC3CC3)CC2)c1)N1CCCC1 | 0.629% |
| CCCc1cc(=O)[nH]c2nnc(SCC(=O)NC(C)(C)C)n12 | -8.6% |
| Cc1ccc(C(C)NC(=O)Cc2c(C)nc3c(c2C)c(=O)[nH]n3C)o1 (stereo not drawn) | -4.59% |

| Structure (SMILES) | cytotoxicity at 70.5 h |
| --- | --- |
| CN(C)C(=O)N1CCN(C(=O)CCc2ccccc2)[C@H]2CS(=O)(=O)C[C@H]21 | -5.59% |
| CN1CCCN(C(=O)NCCNc2ncccc2C#N)CC1 | -2.49% |
| CCS(=O)(=O)N1CCOCC2(CCN(c3ccccn3)C2)C1 (stereo not drawn) | -11.4% |
| Cc1cc(NCc2cn(C)nc2-c2cccnc2)n(C)n1 | -2.96% |
| CC(O)CN1CCN(Cc2cccc(C(=O)N(C)C)c2)CC1 (stereo not drawn) | -2.45% |
| Cc1ncsc1CN1CCN(C)C2(CCC(=O)N(CCO)CC2)C1 (stereo not drawn) | 3.92% |
| c1csc(N2CCCN(Cc3noc(C4CC4)n3)CC2)n1 | -11.8% |
| CN[C@@H](C)C(=O)N(Cc1cccc(C)c1)Cc1ccccc1OC | 14.5% |
| CCOc1ncccc1NC(=O)N1CCc2ccccc2C1 | -12% |
| Cc1cc(CNC(=O)CCc2ccc(S(N)(=O)=O)cc2)no1 | -11.1% |
| CN(CCOc1cccc(CN)c1)C1CCOCC1 | -8.25% |
| Cc1cccnc1N1CCN(Cc2cc(O)c3cccc(F)c3n2)CC1 | -0.745% |
| CN(C)CCNC(=O)Cc1cccc(I)c1 | 18.8% |
| Cc1ccc(N2CCCC(NC(=O)Nc3cnn(C)c3)C2=O)cc1 (stereo not drawn) | 9.02% |
| CCOCCCNC(=O)c1ccccc1S(C)(=O)=O | -15.5% |
| CCC(CC#N)n1ccc(C(F)(F)F)n1 (stereo not drawn) | 22.2% |
| O=C(C1CCN(S(=O)(=O)N2CCCC2)CC1)N1CCC2(CC1)OCCO2 | -7.18% |
| CCC(NC(=O)COC)c1ccccc1OCC(=O)N1CCCC1 (stereo not drawn) | -4.2% |
| Cc1nc(C2CCCN2C(=O)CCc2ccc(F)cc2)ncc1C(N)=O (stereo not drawn) | -10.3% |
| COCC1Cn2nnc(-c3cnn(C)c3)c2CN1Cc1ccsc1 (stereo not drawn) | -9.05% |
| Cc1nc(C)n(C2CCCN(C(=O)c3ccc4[nH]nnc4c3)C2)n1 (stereo not drawn) | 0.449% |
| CCn1c(CC2CCN(S(=O)(=O)c3cccc(C)c3)CC2)nn(C)c1=O | -4.11% |
| COc1nn(C)c2c1CCCN(C(=O)c1cnccn1)C2 | 1.47% |

| Structure (SMILES) | cytotoxicity at 70.5 h |
| --- | --- |
| CCN(C)S(=O)(=O)N1CCCC1CC(=O)c1cccs1 (stereo not drawn) | 32.3% |
| CCN(CC)Cc1cn2c(n1)CN(C(=O)c1cc(C)on1)CC2 | -13.3% |
| Cn1nc(C2CCNC2)c2c(C(=O)NC3CC3)cc(C3CC3)nc21 (stereo not drawn) | 17.5% |
| CC(=O)NCCc1nc(C(C)C)nn1-c1ccncc1C | -14.7% |
| Cc1nonc1CN(C)Cc1c[nH]nc1-c1ccc(F)cc1F | -14.1% |
| C[C@H]1C[C@H]2CN(C(=O)C3=CCCCC3)CC[C@H]2O1 | -2.58% |
| NC(=O)c1ccc(N2CCN(CCCc3cn[nH]c3)CC2)cc1 | -0.688% |
| COc1cccc(-c2nc(C)c(C(=O)N[C@H](CO)CC(C)C)s2)c1 | -22.7% |
| CCc1ccc(C(=O)N2CCC3(CCC(=O)N(CCN(C)C)C3)CC2)[nH]1 | -1.77% |
| CC(Cc1ccco1)NC(=O)CCn1cccn1 (stereo not drawn) | -14.7% |
| CCN(Cc1noc(C)n1)C(=O)CC1C(=O)NCCN1CC(C)(C)C (stereo not drawn) | 9.61% |
| O=C1CC(c2ccc(C(=O)O)cc2)c2ncn(-c3cccnc3)c2N1 (stereo not drawn) | -2.41% |
| Nc1nc(SCc2ccc3c(c2)OCO3)ns1 | -0.0923% |
| Cc1nc2c(c(N3CCCC(CO)C3)n1)CCN(Cc1ccco1)CC2 (stereo not drawn) | 16.9% |
| CC1(C)CN(CCC(=O)NCc2cccc(Cl)c2)CC[C@]1(C)O | -9.57% |
| COCCc1noc(CNC(C)(CO)C2CCCCC2)n1 (stereo not drawn) | -0.882% |
| COc1cccc(CNC(=O)C(c2cccc(F)c2)N2CCOCC2)c1 (stereo not drawn) | 10.7% |
| OC(CN(Cc1ccccc1)Cc1cccnc1)c1ccco1 (stereo not drawn) | 14.4% |
| Cc1c(Cn2c(=O)cnc3ccccc32)cnn1C | -14.9% |
| FC(F)(F)c1c[nH]c(C2CCN(c3ncccn3)CC2)n1 | -15.4% |
| Cc1nc(C)n(CC2CN(CC(=O)NC3CCCC3)CCO2)n1 (stereo not drawn) | -7.31% |
| CO[C@H]1CN(Cc2cccc(C#N)c2)[C@@H]2COC[C@H]12 | -0.497% |
| Oc1cccc(-c2cc(CC3(N(CC4CC4)CC4CC4)COC3)no2)c1 | -6.61% |

| Structure (SMILES) | cytotoxicity at 70.5 h |
| --- | --- |
| CC(C)(C)OC(=O)N1CSC[C@@H]1C(=O)NCc1ccncc1 | -2.13% |
| CN(C)S(=O)(=O)N1CC[C@]2(O)CCN(c3cc(C#N)ccn3)C[C@@H]2C1 | -7.65% |
| CC(C)OCC(=O)N1CCCN(Cc2ccc(C#N)cc2)CC1 | 5.66% |
| CCCn1nccc1C(=O)N1CCCN(CCCc2ccccc2)CC1 | -7.2% |
| CCc1cc(C(F)(F)F)c2c(C)nn(CC(=O)O)c2n1 | 4.66% |
| O=C(CCC1CCCC1)N1CCC(c2ncc3c(n2)CCNC3)CC1 | 11.5% |
| CN(Cc1n[nH]c(=O)n1CCc1ccccc1F)S(C)(=O)=O | -1.83% |
| Cc1ccc(OCC(=O)N(C)Cc2cccc(F)c2)cn1 | -3.84% |
| CCc1ncncc1C(=O)NCCNC(=O)c1ccc(C)c(F)c1 | -8.42% |
| CCn1c(C2CCCNC2)nn(CCn2cncn2)c1=O (stereo not drawn) | -8.3% |
| c1ccc(N2CCCC3(CCN(Cc4nccs4)C3)C2)nc1 (stereo not drawn) | 6.32% |
| O=C(NCc1cccnc1)C1CC(=O)N(CC2CC2)C1 (stereo not drawn) | -6.68% |
| CC(C)c1nncn1CCNC(=O)c1c(O)cc(F)cc1F | -4.67% |
| COc1ccc(C2=CNC(C(F)(F)F)=CC2N)cc1 (stereo not drawn) | -0.00247% |
| CC(CNC(=O)c1cc(Cn2cnc3ccccc32)[nH]n1)N1CCCC1 (stereo not drawn) | -7.82% |
| NC(=O)C1CCN(C(=O)c2ccn(-c3cccc(Cl)c3)n2)C1 (stereo not drawn) | -17.8% |
| COc1ccc(OCC(=O)NS(=O)(=O)c2ccc(Cl)s2)cc1 | -8.59% |
| N[C@@H]1c2ccccc2C2(CCN(C(=O)c3cncc(Cl)c3)CC2)[C@H]1O | 19% |
| CC1CN(C(=O)c2ccn(-c3cccc(Cl)c3)n2)CCO1 (stereo not drawn) | -6.58% |
| O=C(NC1CCCN(Cc2c(F)cccc2F)C1)c1cnccn1 (stereo not drawn) | 1.65% |
| COCC[C@]1(O)CCN(CC(=O)NCc2ccccn2)C[C@H]1C | 5.51% |
| COCc1ccc(CNc2cncc(-n3cccn3)n2)cc1 | -9.14% |
| COc1ccc(C(=O)Nc2ccccc2C(C)C)c(OC)n1 | 5.28% |

| Structure (SMILES) | cytotoxicity at 70.5 h |
| --- | --- |
| COc1ncc(CN(C)C2CCN(C(C)C)CC2)cn1 | 8.08% |
| C[C@@H]1C(=O)NC[C@H]2CN(CCc3ccccc3)C[C@H]21 | -0.303% |
| Cc1c(CN2CCCC2(C)C(=O)N2CCOCC2)cnn1C (stereo not drawn) | -7.03% |
| Cc1nc(C(C)N2Cc3ncccc3C2=O)cs1 (stereo not drawn) | -12.4% |
| CNS(=O)(=O)CCCNC(C)(C)c1nc(C)cs1 | -1.16% |
| COCC(=O)N1CCCn2c(CN3CCCC3)nnc2C1 | -4.43% |
| CC(=O)Nc1cccc(OCCNC(=O)N(C)Cc2ccccc2)c1 | 3.43% |
| Cc1nn(C)c(C)c1C(C)NCc1ccsc1 (stereo not drawn) | 3.61% |
| O=C(N1CCC(Oc2ccncc2)C1)C1(c2cccc(F)c2)CC1 (stereo not drawn) | -1.35% |
| c1cc(-c2noc(CN3CCn4c(nnc4C4CC4)C3)n2)co1 | -0.323% |
| O=C(CSc1ccncc1)N1C[C@H]2CC[C@@H]1CN(Cc1cccnc1)C2 | -2.1% |
| CCOC(=O)C1(O)CCN(C(=O)Nc2cccc(CC)c2)CC1 | -0.303% |
| CC(=O)c1ccc(NC(=O)NC(C)c2ccc3c(c2)CC(=O)N3)cc1 (stereo not drawn) | 2.82% |
| Cc1ccc(C(=O)N2C[C@H](NS(C)(=O)=O)[C@@H](C(C)C)C2)cc1F | 2.48% |
| Cn1cc(C(=O)N[C@H]2CN(Cc3nccs3)[C@@H]3CCCO[C@H]23)cn1 | -8.57% |
| Cc1nn2c(N3CCCC(C#N)C3)cc(-c3ccccc3)nc2c1C (stereo not drawn) | 1.82% |
| O=C(c1coc(COc2cccc3cnccc23)n1)N1CCSCC1 | -5.09% |
| Cc1cc(C)nc(N2CCC(C(=O)Nc3n[nH]c(CC(C)C)n3)CC2)n1 | -12% |
| CC[C@H]1CN2CC[C@H]1C[C@@H]2CNCc1ccc2c(c1)OCO2 | -5.69% |
| N#CC(NC(=O)CCCOc1cccnc1)c1ccccc1Cl (stereo not drawn) | -3.34% |
| CSc1ccsc1C(=O)NCCNC(=O)C1CC1 | -6.91% |
